These results are taken from ChEMBL document CHEMBL1949658, “3D-QSAR and 3D-QSSR models of negative allosteric modulators facilitate the design of a novel selective antagonist of human α4β2 neuronal nicotinic acetylcholine receptors” (Bioorg Med Chem Lett, 2012).

SMILES strings stand for the structures.

Data set [1] concerns the target Neuronal acetylcholine receptor; alpha4/beta2 (Homo sapiens, UniProt P17787+P43681). Description: Antagonist activity at human nAChR alpha4/beta2 receptor expressed in HEK ts201 cells assessed as calcium accumulation by fluorescence analysis. Type of data set: functional, cell-based.
Data set [2] has as its target Neuronal acetylcholine receptor; alpha3/beta4 (Homo sapiens, UniProt P30926+P32297). Description: Antagonist activity at human nAChR alpha3/beta4 receptor expressed in HEK ts201 cells assessed as calcium accumulation by fluorescence analysis. Type of data set: functional, cell-based.
For data set [3], the species on record is Homo sapiens. Description: Selectivity ratio of IC50 for human nAChR alpha3/beta4 receptor to IC50 for human nAChR alpha4/beta2 receptor.
The species named for data set [4] is Homo sapiens. Description: Selectivity ratio of pIC50 for human nAChR alpha3/beta4 receptor to pIC50 for human nAChR alpha4/beta2 receptor.
Data set [5] is described as follows: Lipophilicity, log P of the compound. The conditions noted are these: octanol/water. Type of data set: physicochemical.

Chain of Neuronal acetylcholine receptor; alpha3/beta4 (P30926 whole entry): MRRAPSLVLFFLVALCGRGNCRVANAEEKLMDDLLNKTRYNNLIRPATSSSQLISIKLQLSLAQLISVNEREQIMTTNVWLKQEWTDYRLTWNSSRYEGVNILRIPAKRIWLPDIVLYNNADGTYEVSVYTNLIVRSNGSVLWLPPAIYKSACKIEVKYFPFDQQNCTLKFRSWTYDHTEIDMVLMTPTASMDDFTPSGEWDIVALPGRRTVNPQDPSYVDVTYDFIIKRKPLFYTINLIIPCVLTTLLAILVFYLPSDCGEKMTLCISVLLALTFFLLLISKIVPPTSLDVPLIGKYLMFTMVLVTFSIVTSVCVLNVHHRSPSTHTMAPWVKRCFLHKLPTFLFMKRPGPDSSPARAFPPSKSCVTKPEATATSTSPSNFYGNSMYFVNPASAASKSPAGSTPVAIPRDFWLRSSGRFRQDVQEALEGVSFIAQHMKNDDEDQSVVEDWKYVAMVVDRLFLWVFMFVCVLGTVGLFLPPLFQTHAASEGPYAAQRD
Chain of Neuronal acetylcholine receptor; alpha3/beta4 (P32297 whole entry): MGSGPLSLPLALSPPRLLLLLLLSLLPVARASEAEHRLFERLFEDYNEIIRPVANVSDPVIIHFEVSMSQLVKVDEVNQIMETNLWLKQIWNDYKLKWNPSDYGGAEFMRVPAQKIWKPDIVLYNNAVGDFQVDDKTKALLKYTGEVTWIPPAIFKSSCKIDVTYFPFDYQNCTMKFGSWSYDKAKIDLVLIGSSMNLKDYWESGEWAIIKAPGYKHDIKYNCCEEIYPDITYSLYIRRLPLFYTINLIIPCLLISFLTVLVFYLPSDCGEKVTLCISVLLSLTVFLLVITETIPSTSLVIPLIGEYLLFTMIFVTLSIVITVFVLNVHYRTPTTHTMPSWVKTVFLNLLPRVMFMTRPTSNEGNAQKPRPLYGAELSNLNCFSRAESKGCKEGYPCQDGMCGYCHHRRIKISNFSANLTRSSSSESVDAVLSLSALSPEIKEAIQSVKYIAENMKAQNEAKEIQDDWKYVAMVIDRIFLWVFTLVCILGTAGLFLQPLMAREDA
Chain of Neuronal acetylcholine receptor; alpha4/beta2 (P17787 whole entry): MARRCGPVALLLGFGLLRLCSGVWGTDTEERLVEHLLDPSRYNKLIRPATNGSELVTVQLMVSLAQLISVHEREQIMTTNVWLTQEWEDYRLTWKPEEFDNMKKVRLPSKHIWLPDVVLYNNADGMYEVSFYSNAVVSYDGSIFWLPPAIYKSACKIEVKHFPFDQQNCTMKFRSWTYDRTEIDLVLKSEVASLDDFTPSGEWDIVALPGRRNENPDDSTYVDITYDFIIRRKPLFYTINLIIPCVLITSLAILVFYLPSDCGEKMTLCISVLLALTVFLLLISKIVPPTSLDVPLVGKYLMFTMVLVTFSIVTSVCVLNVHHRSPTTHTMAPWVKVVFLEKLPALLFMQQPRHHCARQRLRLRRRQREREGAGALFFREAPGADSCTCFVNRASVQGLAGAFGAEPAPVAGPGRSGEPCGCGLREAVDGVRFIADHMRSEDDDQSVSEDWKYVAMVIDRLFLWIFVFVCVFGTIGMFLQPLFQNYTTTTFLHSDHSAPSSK
Chain of Neuronal acetylcholine receptor; alpha4/beta2 (P43681 whole entry): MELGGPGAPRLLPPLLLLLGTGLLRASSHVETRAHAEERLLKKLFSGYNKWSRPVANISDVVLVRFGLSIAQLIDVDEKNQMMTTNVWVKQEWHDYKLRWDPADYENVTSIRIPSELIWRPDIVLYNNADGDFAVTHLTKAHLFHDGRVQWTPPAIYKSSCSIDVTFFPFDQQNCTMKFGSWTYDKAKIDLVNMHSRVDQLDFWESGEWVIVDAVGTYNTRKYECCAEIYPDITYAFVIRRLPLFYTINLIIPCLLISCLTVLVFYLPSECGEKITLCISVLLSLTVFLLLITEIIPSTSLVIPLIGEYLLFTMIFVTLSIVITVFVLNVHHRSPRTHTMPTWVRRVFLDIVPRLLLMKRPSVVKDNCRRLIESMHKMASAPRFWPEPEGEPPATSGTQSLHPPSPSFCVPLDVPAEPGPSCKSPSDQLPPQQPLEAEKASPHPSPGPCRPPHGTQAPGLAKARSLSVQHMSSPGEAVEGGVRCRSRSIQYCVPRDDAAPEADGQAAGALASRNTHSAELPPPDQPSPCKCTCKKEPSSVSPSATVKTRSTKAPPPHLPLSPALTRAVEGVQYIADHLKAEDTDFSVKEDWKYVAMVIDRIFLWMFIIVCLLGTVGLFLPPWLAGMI

Turning to `O=C(OC1CCCN(C(=O)CCc2ccccc2)C1)c1ccccc1-c1ccccc1` (stereo not drawn), the results for the IC50 in data set [1] (read-out: IC50) and in data set [2] (read-out: IC50) were 4.3 µM and 6 µM, respectively. Further, the Ratio IC50 in data set [3] was 1.5.
The matching figures for `O=C(OCC1CCCN(C(=O)CCc2ccccc2)C1)c1ccccc1C(F)(F)F` (stereo not drawn): 3.9 µM, 6.3 µM and 2.1.
What is called logP is the decadic logarithm of the partition coefficient of the neutral form, usually between octanol and water. On to `O=C(OCC1CCCN(CCCc2ccccc2)C1)c1ccccc1-c1ccccc1` (stereo not drawn), for which the IC50 was 13.5 µM in data set [1] (read-out: IC50) and greater than 100 µM in data set [2] (read-out: IC50). The Ratio pIC50 in data set [4] was 3.87. Besides, the logP in data set [5] was 5.9.
In the case of `O=C(Nc1ccncn1)c1ccccc1-c1ccccc1`, the IC50 in data set [1] (read-out: IC50) is 25.1 µM; in data set [2] (read-out: IC50) it was 39.6 µM. The Ratio IC50 in data set [3] was determined as 1.6.
`O=C(Nc1ccccc1)c1ccccc1-c1ccccc1`: the IC50 in data set [1] (read-out: IC50) worked out at 6.9 µM; in data set [2] (read-out: IC50), 10.7 µM. The Ratio IC50 in data set [3] amounted to 1.6.
As to `O=C(OCC1CCN(C(=O)CCc2ccccc2)CC1)c1ccccc1-c1ccccc1`, the IC50 was 5.9 µM in data set [1] (read-out: IC50) and 9.4 µM in data set [2] (read-out: IC50). Also, in data set [3], the Ratio IC50 came out at 1.4.
Regarding `O=C(NCc1cccc2ccccc12)c1ccccc1-c1ccccc1`, the IC50 in data set [1] (read-out: IC50) was 13.9 µM; in data set [2] (read-out: IC50) it was greater than 100 µM. In addition, in data set [3], the Ratio IC50 was greater than 10. In data set [5], this molecule registered a logP of 5.
With `O=C(NCc1ccccc1)c1ccccc1-c1ccccc1`, the IC50 in data set [1] (read-out: IC50) amounted to 7.5 µM; in data set [2] (read-out: IC50) it was 7.6 µM. Besides, the Ratio IC50 in data set [3] turned out to be 1.
For `O=C(Nc1ccccn1)c1ccccc1-c1ccccc1`, in that order: 13.6 µM, 17.5 µM and 1.3.
On to `O=C(Nc1cccc2ccccc12)c1ccccc1-c1ccccc1`, for which the IC50 was 10.7 µM in data set [1] (read-out: IC50) and 18.2 µM in data set [2] (read-out: IC50). Also, the Ratio IC50 in data set [3] was 1.8.
In the case of `CC1CC(=O)N(c2ccccc2C(=O)OCC2CCCN(CCCCOc3ccc(Cl)c(Cl)c3)C2)C1=O` (stereo not drawn), the IC50 is 12.3 µM in data set [1] (read-out: pIC50 (converted)) and 74.1 µM in data set [2] (read-out: pIC50 (converted)). The Ratio pIC50 in data set [4] was determined as 0.78.
In the case of `CC1CC(=O)N(c2ccccc2C(=O)OCC2CCCN(CCc3c[nH]c4ccccc34)C2)C1=O` (stereo not drawn), the IC50 in data set [1] (read-out: pIC50 (converted)) is 5.62 µM; in data set [2] (read-out: pIC50 (converted)), 74.1 µM. For the same molecule, in data set [4], the Ratio pIC50 was 1.12.
On to `CO[C@@H]1C[C@H](OC)C[C@@H](OCCN2CCCC(COC(=O)c3ccccc3N3C(=O)CC(C)C3=O)C2)C1` (stereo partly drawn), for which the results for the IC50 in data set [1] (read-out: pIC50 (converted)) and in data set [2] (read-out: pIC50 (converted)) were 12.6 µM and 41.7 µM, respectively. Moreover, the Ratio pIC50 in data set [4] amounted to 0.68.
`COc1ccc(CC2CC(=O)N(c3ccccc3C(=O)OCC3CCCN(CCCc4ccccc4)C3)C2=O)cc1` (stereo not drawn): the IC50 was 38.9 µM in data set [1] (read-out: pIC50 (converted)) and 28.8 µM in data set [2] (read-out: pIC50 (converted)). In addition, the Ratio pIC50 in data set [4] was -0.13.
Turning to `COc1ccc(OCCCCCN2CCCC(COC(=O)c3ccccc3N3C(=O)CC(C)C3=O)C2)cc1OC` (stereo not drawn), the IC50 is 8.32 µM in data set [1] (read-out: pIC50 (converted)) and 2000 µM in data set [2] (read-out: pIC50 (converted)). Further, the Ratio pIC50 in data set [4] was 2.38.
Regarding `Cc1ccc(OCCN2CCCC(COC(=O)c3ccccc3N3C(=O)CC(C)C3=O)C2)cc1` (stereo not drawn), the results for the IC50 in data set [1] (read-out: pIC50 (converted)) and in data set [2] (read-out: pIC50 (converted)) were 11.2 µM and 18.6 µM, respectively. Moreover, in data set [4], the Ratio pIC50 stood at 0.22.
Take `CCN1CCCC(COC(=O)c2ccccc2N2C(=O)CC(Cc3ccccc3)C2=O)C1` (stereo not drawn): the IC50 in data set [1] (read-out: pIC50 (converted)) is 4.47 µM; in data set [2] (read-out: pIC50 (converted)), 11.7 µM. Moreover, the Ratio pIC50 in data set [4] was 0.42.
`O=C(CCc1ccccc1)N1CCCC(CN(Cc2ccccc2-c2ccccc2)Cc2ccccc2-c2ccccc2)C1` (stereo not drawn): the values for the IC50 in data set [1] (read-out: pIC50 (converted)) and in data set [2] (read-out: pIC50 (converted)) were 20.9 µM and 40.7 µM, respectively. For the same molecule, the Ratio pIC50 in data set [4] is 0.29.
For the molecule `O=C(OCC1CCCN(CCCc2ccccc2)C1)c1ccc(-c2ccccc2)cc1` (stereo not drawn), the IC50 is 6.31 µM in data set [1] (read-out: pIC50 (converted)) and 18.6 µM in data set [2] (read-out: pIC50 (converted)). Moreover, the Ratio pIC50 in data set [4] amounted to 0.47.
For the molecule `O=C(OCC1CCN(CCCc2ccccc2)CC1)c1ccccc1-c1ccccc1`, the IC50 in data set [1] (read-out: IC50) was 8.1 µM; in data set [2] (read-out: IC50) it was 10.5 µM. For the same molecule, in data set [4], the Ratio pIC50 worked out at 0.11.
As to `C[N+]1(C)CCCC(COC(=O)c2ccccc2-c2ccccc2)C1` (single isomer, unassigned), the IC50 in data set [1] (read-out: pIC50 (converted)) is 2.4 µM; in data set [2] (read-out: pIC50 (converted)), 6.46 µM. The Ratio pIC50 in data set [4] was 0.43.
For `O=C(OCC1CCCN(CCc2ccccc2)C1)c1ccccc1N1C(=O)CC(Cc2ccccc2)C1=O` (stereo not drawn), the results for the IC50 in data set [1] (read-out: pIC50 (converted)) and in data set [2] (read-out: pIC50 (converted)) were 4.47 µM and 11.7 µM, respectively. In data set [4], the Ratio pIC50 worked out at 0.42.
